Data taken from PubChem BioAssay (NCI).
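Where inhibition never reached the appropriate level, the endpoint shown equals the highest concentration tested. Otherwise, values were interpolated linearly from a five-concentration, 48-hour dose response in 96-well plates. Definition used: TGI = concentration required for complete inhibition of growth.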

Columns and labels:
Experiment in all cases: NCI tumour cell line growth inhibition, 48 h
[1] = tested on: 786-0 renal
[2] = tested on: A498 renal
[3] = tested on: A549 NSCLC
[4] = tested on: ACHN renal
[5] = tested on: CAKI-1 renal
[6] = tested on: CCRF-CEM leukemia
[7] = tested on: EKVX NSCLC
[8] = tested on: HCC-2998 colon
[9] = tested on: HCT-116 colon
[10] = tested on: HCT-15 colon
[11] = tested on: HL-60(TB) leukemia
[12] = tested on: HOP-62 NSCLC
[13] = tested on: HOP-92 NSCLC
[14] = tested on: HT29 colon
[15] = tested on: IGROV1 ovarian
[16] = tested on: K-562 leukemia
[17] = tested on: KM12 colon
[18] = tested on: KM20L2 colon
[19] = tested on: LOX IMVI melanoma
[20] = tested on: M14 melanoma
[21] = tested on: MOLT-4 leukemia
[22] = tested on: NCI-H226 lung
[23] = tested on: NCI-H23 lung
[24] = tested on: NCI-H460 lung
[25] = tested on: NCI-H522 lung
[26] = tested on: OVCAR-3 ovarian
[27] = tested on: OVCAR-5 ovarian
[28] = tested on: OVCAR-8 ovarian
[29] = tested on: RXF 393 renal
[30] = tested on: RXF-631 renal
[31] = tested on: SF-268 CNS
[32] = tested on: SF-295 CNS
[33] = tested on: SF-539 CNS
[34] = tested on: SK-MEL-2 melanoma
[35] = tested on: SK-MEL-28 melanoma
[36] = tested on: SK-OV-3 ovarian
[37] = tested on: SNB-19 CNS
[38] = tested on: SNB-78 CNS
[39] = tested on: SR leukemia
[40] = tested on: SW-620 colon
[41] = tested on: TK-10 renal
[42] = tested on: UACC-257 melanoma
[43] = tested on: UACC-62 melanoma
[44] = tested on: UO-31 renal
[45] = tested on: COLO 205 colon
[46] = tested on: DLD-1 colon
[47] = tested on: DMS 114 small cell lung
[48] = tested on: HOP-18 NSCLC
[49] = tested on: M19-MEL melanoma
[50] = tested on: MALME-3M melanoma
[51] = tested on: OVCAR-4 ovarian
[52] = tested on: RPMI-8226 leukemia
[53] = tested on: SK-MEL-5 melanoma
[54] = tested on: SN12C renal
[55] = tested on: SNB-75 CNS
[56] = tested on: U251 CNS

c1ccc(N/N=C2\NN=C(c3ccccc3)CS2)cc1
TGI [1]: 33.6 µM
TGI [2]: 25.8 µM
TGI [3]: 22.2 µM
TGI [4]: 19.1 µM
TGI [5]: 8.32 µM
TGI [6]: 54.9 µM
TGI [7]: 37.4 µM
TGI [8]: 19.3 µM
TGI [9]: 15.2 µM
TGI [10]: 20.9 µM
TGI [11]: > 100 µM
TGI [12]: > 100 µM
TGI [13]: 31.9 µM
TGI [14]: 24 µM
TGI [15]: 32.3 µM
TGI [16]: 25.8 µM
TGI [17]: 53.2 µM
TGI [18]: 22.8 µM
TGI [19]: 15.3 µM
TGI [20]: 24.8 µM
TGI [21]: 34.1 µM
TGI [22]: > 100 µM
TGI [23]: 52.3 µM
TGI [24]: 51.4 µM
TGI [25]: 10.8 µM
TGI [26]: 50.9 µM
TGI [27]: 41.8 µM
TGI [28]: 19.7 µM
TGI [29]: 25.1 µM
TGI [30]: 35.8 µM
TGI [31]: 19.8 µM
TGI [32]: 48.6 µM
TGI [33]: 41.7 µM
TGI [34]: 44 µM
TGI [35]: 36.6 µM
TGI [36]: 39.9 µM
TGI [37]: 85.9 µM
TGI [38]: 34.2 µM
TGI [39]: > 100 µM
TGI [40]: 29.9 µM
TGI [41]: 26.5 µM
TGI [42]: 41.4 µM
TGI [43]: 21.5 µM
TGI [44]: 32.8 µM

COc1c2c(cc3c1C(=O)Cc1ccc4c(c1CN(C)CC3)OCO4)OCO2
TGI [1]: > 100 µM
TGI [3]: > 100 µM
TGI [4]: > 100 µM
TGI [5]: > 100 µM
TGI [6]: > 100 µM
TGI [45]: > 100 µM
TGI [46]: > 100 µM
TGI [47]: > 100 µM
TGI [7]: > 100 µM
TGI [8]: > 100 µM
TGI [9]: > 100 µM
TGI [10]: > 100 µM
TGI [11]: > 100 µM
TGI [48]: > 100 µM
TGI [12]: > 100 µM
TGI [13]: > 100 µM
TGI [14]: > 100 µM
TGI [15]: > 100 µM
TGI [16]: > 100 µM
TGI [17]: > 100 µM
TGI [18]: > 100 µM
TGI [19]: > 100 µM
TGI [20]: > 100 µM
TGI [49]: > 100 µM
TGI [50]: > 100 µM
TGI [21]: > 100 µM
TGI [22]: > 100 µM
TGI [23]: > 100 µM
TGI [24]: > 100 µM
TGI [25]: > 100 µM
TGI [26]: > 100 µM
TGI [51]: > 100 µM
TGI [27]: > 100 µM
TGI [28]: > 100 µM
TGI [52]: > 100 µM
TGI [29]: > 100 µM
TGI [30]: > 100 µM
TGI [31]: > 100 µM
TGI [32]: > 100 µM
TGI [33]: > 100 µM
TGI [34]: > 100 µM
TGI [35]: > 100 µM
TGI [53]: > 100 µM
TGI [36]: > 100 µM
TGI [54]: > 100 µM
TGI [37]: > 100 µM
TGI [55]: > 100 µM
TGI [38]: > 100 µM
TGI [39]: > 100 µM
TGI [40]: > 100 µM
TGI [41]: > 100 µM
TGI [56]: > 100 µM
TGI [42]: > 100 µM
TGI [43]: > 100 µM
TGI [44]: > 100 µM
